These results are taken from PubChem BioAssay AID588412 (NMMLSC, 2011).

pEC50: −log10 of the molar value. Calls of active or inactive are those of the source.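 Rule for the calls: active = fitted EC50 below about 63 µM, meaning a log molar EC50 under -4.2; inactive = the rest.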

As usually defined, the pEC50 is the negative decadic logarithm of the EC50, by convention in mol/L.

For this experiment, the target named is Integrin alpha-4 (Homo sapiens) (UniProt P13612). Description: displacement of fluorescent LDV from VLA-4 – U937 cells, flow cytometry, set 1, orthogonal assay, dose response (AID 588412). The settings on record: LDV-FITC competition, flow cytometry MCF. A general note: Flow cytometry measures light scatter and fluorescence of single cells or particles in a stream.
Chain of Integrin alpha-4 (Homo sapiens) (P13612 whole entry, looked up): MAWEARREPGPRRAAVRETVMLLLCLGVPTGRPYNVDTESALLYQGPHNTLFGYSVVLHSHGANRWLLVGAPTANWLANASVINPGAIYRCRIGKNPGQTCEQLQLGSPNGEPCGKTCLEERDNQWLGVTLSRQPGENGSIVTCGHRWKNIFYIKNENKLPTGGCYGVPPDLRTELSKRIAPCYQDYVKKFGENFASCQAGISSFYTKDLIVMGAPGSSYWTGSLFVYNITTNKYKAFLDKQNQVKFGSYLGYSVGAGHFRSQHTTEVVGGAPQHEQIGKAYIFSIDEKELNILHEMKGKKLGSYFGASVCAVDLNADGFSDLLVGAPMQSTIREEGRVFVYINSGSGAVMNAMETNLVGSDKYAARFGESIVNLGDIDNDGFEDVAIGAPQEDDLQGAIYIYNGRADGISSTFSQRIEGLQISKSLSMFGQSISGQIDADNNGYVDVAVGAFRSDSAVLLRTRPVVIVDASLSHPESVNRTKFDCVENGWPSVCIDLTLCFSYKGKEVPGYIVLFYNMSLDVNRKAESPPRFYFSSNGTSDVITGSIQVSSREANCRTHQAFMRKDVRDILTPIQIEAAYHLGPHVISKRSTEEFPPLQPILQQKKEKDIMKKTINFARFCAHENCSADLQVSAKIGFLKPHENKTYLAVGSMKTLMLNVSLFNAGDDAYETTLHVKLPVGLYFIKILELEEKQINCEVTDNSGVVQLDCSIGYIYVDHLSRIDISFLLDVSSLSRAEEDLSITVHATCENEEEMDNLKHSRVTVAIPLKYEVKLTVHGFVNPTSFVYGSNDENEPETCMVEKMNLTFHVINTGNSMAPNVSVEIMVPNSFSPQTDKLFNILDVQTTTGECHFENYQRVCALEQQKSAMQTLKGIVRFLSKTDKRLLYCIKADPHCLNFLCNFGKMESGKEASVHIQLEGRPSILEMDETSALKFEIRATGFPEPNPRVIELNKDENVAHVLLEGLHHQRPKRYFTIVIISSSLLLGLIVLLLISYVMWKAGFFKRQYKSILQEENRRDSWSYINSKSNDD
Take `COc1ccc(-c2sc3ccccc3c2-c2ccc(OCCN(C)C)cc2)cc1`: the negative-log EC50 (pEC50) was 4.79. As for `CN(C)CCOc1ccc(-c2c(-c3ccccc3)sc3ccccc23)cc1`, the negative logarithm of the EC50 (pEC50) was 4.52.

Turning to `c1ccc2c(-c3ccc(OCCN4CCCCC4)cc3)c(-c3ccsc3)sc2c1`, the EC50 entry is “inactive”. For the molecule `c1ccc(-c2sc3ccccc3c2-c2ccc(OCCN3CCCC3)cc2)cc1`, the pEC50 is 4.55.

Regarding `COc1cccc(-c2sc3ccccc3c2-c2ccc(OCCN(C)C)cc2)c1`, the pEC50 is 4.61. `COc1cccc(-c2sc3ccccc3c2-c2ccc(OCCN3CCCC3)cc2)c1`: the negative-log EC50 (pEC50) is 4.61. For the molecule `c1ccc2c(-c3ccc(OCCN4CCCC4)cc3)c(-c3ccsc3)sc2c1`, the pEC50 was 4.68.
